Assay results published in ChEMBL document CHEMBL4265942, “Four new antitumor metabolites isolated from a mutant 3-f-31 strain derived from Penicillium purpurogenum G59” (Eur J Med Chem, 2018).

Key:
MCF7 = experiment: Antiproliferative activity against human MCF7 cells assessed as inhibition of cell growth after 72 hrs by sulforhodamine B assay; type: functional, cell-based; conditions: MCF7, 72 h
HeLa = experiment: Antiproliferative activity against human HeLa cells assessed as inhibition of cell growth after 72 hrs by sulforhodamine B assay; type: functional, cell-based
Mus musculus [1] = experiment: Toxicity in BALB/c nu/nu mouse xenografted with human HCT116 cells assessed as spleen index at 20 mg/kg administered peritoneally once daily for 14 days measured 24 hrs post last dose (reference value: 0.41 +/- 0.08%); type: organism-based; conditions: in vivo, ip
PC-3 = experiment: Antiproliferative activity against human PC3 cells assessed as inhibition of cell growth after 72 hrs by sulforhodamine B assay; type: functional, cell-based; conditions: PC-3, 72 h
HCT-116 [2] = experiment: Down regulation of ERK1/2 expression in human HCT116 cells after 48 hrs by Western blot analysis; type: functional, cell-based
L929 = experiment: Cytotoxicity against mouse L929 cells assessed as inhibition of cell growth after 72 hrs by MTT assay; type: cell-based; conditions: L929, 72 h
HCT-116 [3] = experiment: Antitumor activity against human HCT116 cells xenografted in BALB/c nu/nu mouse assessed as tumor growth inhibition at 10 mg/kg administered peritoneally once daily for 14 days measured 24 hrs post last dose relative to control; type: functional; conditions: read-out: TGI
HCT-116 [4] = experiment: Antitumor activity against human HCT116 cells xenografted in BALB/c nu/nu mouse assessed as tumor growth inhibition at 5 mg/kg administered peritoneally once daily for 14 days measured 24 hrs post last dose relative to control; type: functional; conditions: read-out: TGI
BXPC-3 = experiment: Antiproliferative activity against human BxPC3 cells assessed as inhibition of cell growth after 72 hrs by sulforhodamine B assay; type: functional, cell-based; conditions: BXPC-3, 72 h
HCT-116 [5] = experiment: Down regulation of phosphorylated STAT3 expression in human HCT116 cells after 48 hrs by Western blot analysis; type: functional, cell-based
PANC-1 = experiment: Antiproliferative activity against human PANC1 cells assessed as inhibition of cell growth after 72 hrs by sulforhodamine B assay; type: functional, cell-based; conditions: PANC-1, 72 h
HCT-116 [6] = experiment: Down regulation of Raf1 expression in human HCT116 cells after 48 hrs by Western blot analysis; type: functional, cell-based
HCT-116 [7] = experiment: Down regulation of HSP90 expression in human HCT116 cells after 48 hrs by Western blot analysis; type: functional, cell-based
HCT-116 [8] = experiment: Down regulation of AKT expression in human HCT116 cells after 48 hrs by Western blot analysis; type: functional, cell-based
Mus musculus [9] = experiment: Toxicity in BALB/c nu/nu mouse xenografted with human HCT116 cells assessed as spleen index at 10 mg/kg administered peritoneally once daily for 14 days measured 24 hrs post last dose (reference value: 0.41 +/- 0.08%); type: organism-based; conditions: in vivo, ip
HL-60 = experiment: Antiproliferative activity against human HL60 cells assessed as inhibition of cell growth after 72 hrs by MTT assay; type: functional, cell-based; conditions: HL-60, 72 h
HCT-116 [10] = experiment: Antitumor activity against human HCT116 cells xenografted in BALB/c nu/nu mouse assessed as tumor growth inhibition at 20 mg/kg administered peritoneally once daily for 14 days measured 24 hrs post last dose relative to control; type: functional; conditions: read-out: TGI
HCT-116 [11] = experiment: Antiproliferative activity against human HCT116 cells assessed as inhibition of cell growth after 72 hrs by sulforhodamine B assay; type: functional, cell-based; conditions: HCT-116, 72 h
LS180 = experiment: Antiproliferative activity against human LS180 cells assessed as inhibition of cell growth after 72 hrs by sulforhodamine B assay; type: functional, cell-based; conditions: LS180, 72 h
NCI-H1975 = experiment: Antiproliferative activity against human NCI-H1975 cells assessed as inhibition of cell growth after 72 hrs by sulforhodamine B assay; type: functional, cell-based; conditions: NCI-H1975, 72 h
Mus musculus [12] = experiment: Toxicity in BALB/c nu/nu mouse xenografted with human HCT116 cells assessed as spleen index at 5 mg/kg administered peritoneally once daily for 14 days measured 24 hrs post last dose (reference value: 0.41 +/- 0.08%); type: organism-based; conditions: in vivo, ip
HepG2 = experiment: Antiproliferative activity against human HepG2 cells assessed as inhibition of cell growth after 72 hrs by sulforhodamine B assay; type: functional, cell-based; conditions: HepG2, 72 h
K562 = experiment: Antiproliferative activity against human K562 cells assessed as inhibition of cell growth after 72 hrs by MTT assay; type: functional, cell-based; conditions: K562, 72 h
SW480 = experiment: Antiproliferative activity against human SW480 cells assessed as inhibition of cell growth after 72 hrs by sulforhodamine B assay; type: functional, cell-based; conditions: SW480, 72 h
HT-29 = experiment: Antiproliferative activity against human HT-29 cells assessed as inhibition of cell growth after 72 hrs by sulforhodamine B assay; type: functional, cell-based; conditions: HT-29, 72 h
A549 = experiment: Antiproliferative activity against human A549 cells assessed as inhibition of cell growth after 72 hrs by sulforhodamine B assay; type: functional, cell-based; conditions: A549, 72 h
HCT-116 [13] = experiment: Down regulation of STAT3 expression in human HCT116 cells after 48 hrs by Western blot analysis; type: functional, cell-based
HCT-116 [14] = experiment: Down regulation of survivin expression in human HCT116 cells after 48 hrs by Western blot analysis; type: functional, cell-based

IC50 (MCF7): 3.73 µM
IC50 (HeLa): 5.09 µM
IC50 (PC-3): 8.7 µM
IC50 (BXPC-3): 5.96 µM
IC50 (PANC-1): 4.04 µM
IC50 (HL-60): 4.55 µM
IC50 (HCT-116 [11]): 1.91 µM
IC50 (NCI-H1975): 3.75 µM
IC50 (HepG2): 5.21 µM
IC50 (K562): 4.2 µM
IC50 (SW480): 4.64 µM
IC50 (HT-29): 8.4 µM
IC50 (A549): 10.9 µM
SMILES: CCCCCC[C@@H](C)C[C@@H](C)/C=C/C(=O)N[C@H]1C[C@@]2(O[C@H]1O)[C@@H]1O[C@@H]1[C@](O)(CC(C)=O)[C@@H]1O[C@@H]12
Activity_index (Mus musculus [1]): 0.48
Activity (HCT-116 [2]): Dose-dependent effect
IC50 (L929): 3.8 µM
inhibition in vivo at 10 mg/kg (HCT-116 [3]): 37.8%
inhibition in vivo at 5 mg/kg (HCT-116 [4]): 51.6%
Activity (HCT-116 [5]): Dose-dependent effect
Activity (HCT-116 [6]): Dose-dependent effect
Activity (HCT-116 [7]): Dose-dependent effect
Activity (HCT-116 [8]): Dose-dependent effect
Activity_index (Mus musculus [9]): 0.37
inhibition in vivo at 20 mg/kg (HCT-116 [10]): 37.9%
IC50 (LS180): 17.4 µM
Activity_index (Mus musculus [12]): 0.95
Activity (HCT-116 [13]): Dose-dependent effect
Activity (HCT-116 [14]): Dose-dependent effect
